Assays:
Type in all cases: in vivo
[1] = test system: Zea mays (ZEAMX); assay: Post-emergence application in field trials; details: height 50-60 cm
Text: (§1) Post-Emergence Application of Herbicide A-1 (A-1) and Topramezone (B-1) in Field Trials
(§2) Herbicide A-1 (342 g/l) and topramezone (336 g/l) were, together with addition of 0.25 v/v % MSO (methylated sed oil) as adjuvant, formulated in water as distribution medium (water volume 200 l/ha) and sprayed with commercial flat fan nozzles.

[2] = test system: Setaria verticillata (SETVE); assay: Post-emergence application in field trials; details: height 8-16 cm
Text: as §1, §2

[3] = test system: Hordeum vulgare (HORVX); assay: Post-emergence application in field trials; details: height 20-25 cm
Text: as §1, §2

[4] = test system: Digitaria sanguinalis (DIGSA); assay: Post-emergence application in field trials; details: 21 DAT, height 10-15 cm
Text: as §1, §2

[5] = test system: Abutilon theophrasti (ABUTH); assay: Post-emergence application in field trials; details: height 10-12 cm
Text: as §1, §2

[6] = test system: Glycine max (GLXMA); assay: Post-emergence application in field trials; details: height 7-11 cm, 7 DAT
Text: as §1, §2

[7] = test system: Zea mays (ZEAMX); assay: Post-emergence application in greenhouse trials
Procedure: (§3) The culture containers used were plastic pots containing loamy sand with approximately 3.0% of humus as substrate. The seeds of the test plants were sown separately for each species.
(§4) For the post-emergence treatment, the test plants were grown to a plant height as indicated below, depending on the plant habit, and only then treated with the active compounds which had been suspended or emulsified in water. To this end, the test plants were either sown directly, and grown in the same containers, or they were first grown separately as seedlings and transplanted into the test containers a few days prior to treatment.
(§5) Depending on the species, the plants were kept at 10-25° C. and 20-35° C., respectively. The test period extended over 2 to 4 weeks. During this time, the plants were tended and their response to the individual treatments was evaluated.
(§6) Evaluation was carried out using a scale from 0 to 100. 100 means no emergence of the plants, or complete destruction of at least the above-ground parts, and 0 means no damage or normal course of growth. A good herbicidal activity is given at values of at least 70, and very good herbicidal activity is given at values of at least 85.
(§7) Herbicide A-1 and topramezone were, together with addition of 0.5 v/v % MSO (methylated sed oil) as adjuvant, formulated in water as distribution medium (water volume 200 l/ha) and sprayed with commercial flat fan nozzles.
(§8) Herbicide A-1 (342 g/l), topramezone (336 g/l) and DMTA-p (720 g/l) were, together with addition of 0.5 v/v % MSO (methylated sed oil) as adjuvant, formulated in water as distribution medium (water volume 200 l/ha) and sprayed with commercial flat fan nozzles.

[8] = test system: Brachiaria decumbens (BRADC (BRARU)); assay: Post-emergence application in greenhouse trials
Procedure: as §3, §4, §5, §6, §7, §8

[9] = test system: Amaranthus tamariscinus (AMATA); assay: Post-emergence application in greenhouse trials; details: 7 DAT
Procedure: as §3, §4, §5, §6, §7, §8

[10] = test system: Digitaria sanguinalis (DIGSA); assay: Post-emergence application in greenhouse trials; details: 20 DAT
Procedure: as §3, §4, §5, §6, §7, §8

[11] = test system: Abutilon theophrasti (ABUTH); assay: Post-emergence application in greenhouse trials; details: 7 DAT
Procedure: as §3, §4, §5, §6, §7, §8

[12] = test system: Kochia scoparia (KCHSC); assay: Post-emergence application in greenhouse trials; details: 20 DAT
Procedure: as §3, §4, §5, §6, §7, §8

[13] = test system: Erigeron canadensis (ERICA); assay: Post-emergence application in greenhouse trials; details: 20 DAT
Procedure: as §3, §4, §5, §6, §7, §8

[14] = test system: Commelina benghalenis (COMBE); assay: Post-emergence application in greenhouse trials
Procedure: as §3, §4, §5, §6, §7, §8

[15] = test system: Setaria virids (SETVI); assay: Post-emergence application in greenhouse trials
Procedure: as §3, §4, §5, §6, §7, §8

[16] = test system: Glycine max (GLXMA); assay: Post-emergence application in greenhouse trials; details: 7 DAT
Procedure: as §3, §4, §5, §6, §7, §8

[17] = test system: Avena fatua (AVEFA); assay: Post-emergence application in greenhouse trials
Procedure: as §3, §4, §5, §6, §7, §8

[18] = test system: Eleusine indica (ELEIN); assay: Post-emergence application in greenhouse trials; details: 7 DAT
Procedure: as §3, §4, §5, §6, §7, §8

[19] = 7 DAT, growth stage 11, 2 g ai/ha
[20] = 20 DAT, growth stage 12, 0.5 g ai/ha
[21] = 20 DAT, growth stage 12, 1 g ai/ha
[22] = 7 DAT, growth stage 11, 3.125 g ai/ha
[23] = 7 DAT, growth stage 11, 120 g ai/ha

## CCOC(=O)COc1ccccc1Oc1nc(-n2c(=O)cc(C(F)(F)F)n(C)c2=O)c(F)cc1Cl [A-1, ethyl 2-[2-[[3-chloro-5-fluoro-6-[3-methyl-2,6-dioxo-4-(trifluoromethyl)pyrimidin-1-yl]-2-pyridyl]oxy]phenoxy]acetate]
[1]; 21 DAT, 12.5 g ai/ha
  % herbicidal activity: 70%
[1]; 21 DAT, 18 g ai/ha
  % herbicidal activity: 75%
[1]; 28 DAT, 12.5 g ai/ha
  % herbicidal activity: 50%
[1]; 28 DAT, 18 g ai/ha
  % herbicidal activity: 60%
[2]; 21 DAT, 12.5 g ai/ha
  % herbicidal activity: 45%
[2]; 42 DAT, 12.5 g ai/ha
  % herbicidal activity: 30%
[3]; 21 DAT, 12.5 g ai/ha
  % herbicidal activity: 90%
[3]; 21 DAT, 18 g ai/ha
  % herbicidal activity: 95%
[3]; HORVX, A-1 12.5 g ai/ha, 7 DAT
  % herbicidal activity: 70%
[4]; 12.5 g ai/ha
  % herbicidal activity: 70%
[5]; 21 DAT, 18 g ai/ha
  % herbicidal activity: 92%
[5]; 42 DAT, 18 g ai/ha
  % herbicidal activity: 90%
[5]; ABUTH, A-1 18 g ai/ha, 7 DAT
  % herbicidal activity: 90%
[6]; A-1 18 g ai/ha
  % herbicidal activity: 93%
[7]; 7 DAT, growth stage 12, 2 g ai/ha
  % herbicidal activity: 60%
[7]; 21 DAT, growth stage 12, 2 g ai/ha
  % herbicidal activity: 40%
[8]; [19]
  % herbicidal activity: 50%
[8]; 20 DAT, growth stage 12, 0.25 g ai/ha
  % herbicidal activity: 5%
[8]; [20]
  % herbicidal activity: 15%
[8]; [21]
  % herbicidal activity: 30%
[9]; growth stage 14, A-1 1 g ai/ha
  % herbicidal activity: 80%
[10]; growth stage 13, 0.25 g ai/ha
  % herbicidal activity: 5%
[11]; growth stage 15, 0.5 g ai/ha
  % herbicidal activity: 85%
[11]; ABUTH, growth stage 13, A-1 0.25 g ai/ha
  % herbicidal activity: 10%
[11]; ABUTH, growth stage 13, A-1 1 g ai/ha
  % herbicidal activity: 50%
[12]; growth stage 24, 0.25 g ai/ha
  % herbicidal activity: 0%
[13]; growth stage 19, 0.5 g ai/ha
  % herbicidal activity: 0%
[13]; growth stage 19, 2 g ai/ha
  % herbicidal activity: 40%
[14]; 20 DAT, growth stage 11, 1 g ai/ha
  % herbicidal activity: 5%
[14]; 21 DAT, growth stage 13, 1 g ai/ha
  % herbicidal activity: 80%
[15]; [20]
  % herbicidal activity: 10%
[15]; [21]
  % herbicidal activity: 15%
[15]; SETVI, growth stage 12, A-1 1 g ai/ha, 7 DAT
  % herbicidal activity: 15%
[15]; SETVI, growth stage 12, A-1 2 g ai/ha, 7 DAT
  % herbicidal activity: 25%
[16]; growth stage 18, 1 g ai/ha
  % herbicidal activity: 90%
[17]; [19]
  % herbicidal activity: 55%
[17]; 21 DAT, growth stage 11, 2 g ai/ha
  % herbicidal activity: 30%
[18]; growth stage 13, A-1 1 g ai/ha
  % herbicidal activity: 45%

## Cc1c(C(=O)c2cnn(C)c2O)ccc(S(C)(=O)=O)c1C1=NOCC1 [B-1, topramezone]
[1]; 21 DAT, 12.5 g ai/ha
  % herbicidal activity: 0%
[1]; 21 DAT, 18 g ai/ha
  % herbicidal activity: 0%
[1]; 28 DAT, 12.5 g ai/ha
  % herbicidal activity: 0%
[1]; 28 DAT, 18 g ai/ha
  % herbicidal activity: 0%
[2]; 21 DAT, 18 g ai/ha
  % herbicidal activity: 45%
[2]; 42 DAT, 18 g ai/ha
  % herbicidal activity: 40%
[3]; 21 DAT, 12.5 g ai/ha
  % herbicidal activity: 0%
[3]; 21 DAT, 18 g ai/ha
  % herbicidal activity: 10%
[3]; HORVX, B-1 18 g ai/ha, 7 DAT
  % herbicidal activity: 20%
[4]; 18 g ai/ha
  % herbicidal activity: 40%
[5]; 21 DAT, 12.5 g ai/ha
  % herbicidal activity: 60%
[5]; 21 DAT, 18 g ai/ha
  % herbicidal activity: 65%
[5]; 42 DAT, 12.5 g ai/ha
  % herbicidal activity: 60%
[5]; 42 DAT, 18 g ai/ha
  % herbicidal activity: 65%
[5]; ABUTH, B-1 12.5 g ai/ha, 7 DAT
  % herbicidal activity: 50%
[5]; ABUTH, B-1 18 g ai/ha, 7 DAT
  % herbicidal activity: 55%
[6]; B-1 12.5 g ai/ha
  % herbicidal activity: 45%
[6]; B-1 18 g ai/ha
  % herbicidal activity: 45%
[7]; 7 DAT, growth stage 12, 3.125 g ai/ha
  % herbicidal activity: 5%
[7]; 21 DAT, growth stage 12, 3.125 g ai/ha
  % herbicidal activity: 0%
[8]; [22]
  % herbicidal activity: 50%
[8]; 20 DAT, growth stage 12, 6.25 g ai/ha
  % herbicidal activity: 75%
[9]; growth stage 14, B-1 6.25 g ai/ha
  % herbicidal activity: 80%
[10]; growth stage 13, 3.12 g ai/ha
  % herbicidal activity: 85%
[11]; growth stage 15, 3.125 g ai/ha
  % herbicidal activity: 50%
[11]; ABUTH, growth stage 13, B-1 3.12 g ai/ha
  % herbicidal activity: 45%
[12]; growth stage 24, 6.25 g ai/ha
  % herbicidal activity: 60%
[13]; growth stage 19, 3.12 g ai/ha
  % herbicidal activity: 25%
[13]; growth stage 19, 6.25 g ai/ha
  % herbicidal activity: 55%
[14]; 20 DAT, growth stage 11, 6.25 g ai/ha
  % herbicidal activity: 10%
[14]; 21 DAT, growth stage 13, 3.125 g ai/ha
  % herbicidal activity: 35%
[15]; 20 DAT, growth stage 12, 3.12 g ai/ha
  % herbicidal activity: 70%
[15]; SETVI, growth stage 12, B-1 6.25 g ai/ha, 7 DAT
  % herbicidal activity: 75%
[16]; growth stage 18, 3.125 g ai/ha
  % herbicidal activity: 20%
[17]; [22]
  % herbicidal activity: 10%
[17]; 21 DAT, growth stage 11, 3.125 g ai/ha
  % herbicidal activity: 10%
[18]; growth stage 13, B-1 3.12 g ai/ha
  % herbicidal activity: 80%

## COC[C@H](C)N(C(=O)CCl)c1c(C)csc1C [C-23, dimethenamid-p (DMTA-p)]
[7]; 7 DAT, growth stage 12, 120 g ai/ha
  % herbicidal activity: 0%
[7]; 21 DAT, growth stage 12, 120 g ai/ha
  % herbicidal activity: 0%
[8]; [23]
  % herbicidal activity: 10%
[11]; growth stage 15, 120 g ai/ha
  % herbicidal activity: 0%
[14]; 21 DAT, growth stage 13, 120 g ai/ha
  % herbicidal activity: 10%
[16]; growth stage 18, 120 g ai/ha
  % herbicidal activity: 0%
[17]; [23]
  % herbicidal activity: 0%
[17]; 21 DAT, growth stage 11, 120 g ai/ha
  % herbicidal activity: 40%
